From the NIST ThermoML archive (doi:10.1016/j.jct.2013.05.051)
± gives the expanded uncertainty stated by the source.

Assay: xn = mol fraction of the nth substance listed
Conditions: Liquid, Vibrating tube method

CCCCCCCO [heptan-1-ol] + CCCCCCC
mass density [kg/m3]
Conditions	x1 = 0.1493	x1 = 0.3215	x1 = 0.5226	x1 = 0.6698	x1 = 0.8469	x1 = 1
298.15 K, 100 kPa	699.7 ± 1.4	723.4 ± 1.4	751.3 ± 1.4	772.6 ± 1.5	804.4 ± 4.1	818.7 ± 1.5
298.15 K, 1000 kPa	700.6 ± 1.4	724.2 ± 1.4	752.1 ± 1.4	773.3 ± 1.5	805.1 ± 4	819.3 ± 1.5
298.15 K, 5000 kPa	704.1 ± 1.4	727.6 ± 1.4	755.2 ± 1.4	776.2 ± 1.5	807.8 ± 4	821.9 ± 1.5
298.15 K, 10000 kPa	708.4 ± 1.4	731.6 ± 1.4	759 ± 1.5	779.7 ± 1.5	811.1 ± 4	824.9 ± 1.5
298.15 K, 15000 kPa	712.4 ± 1.4	735.4 ± 1.4	762.6 ± 1.5	783.2 ± 1.5	814.2 ± 4	828 ± 1.6
298.15 K, 20000 kPa	716.2 ± 1.5	739.1 ± 1.5	765.9 ± 1.5	786.3 ± 1.5	817.2 ± 4	830.8 ± 1.6
298.15 K, 25000 kPa	719.8 ± 1.5	742.4 ± 1.5	769.1 ± 1.5	789.4 ± 1.5	820 ± 4.1	833.5 ± 1.6
298.15 K, 30000 kPa	723.3 ± 1.5	745.8 ± 1.5	772.3 ± 1.5	792.5 ± 1.5	822.8 ± 4.1	836.3 ± 1.6
298.15 K, 35000 kPa	726.5 ± 1.5	748.9 ± 1.5	775.3 ± 1.5	795.3 ± 1.5	825.4 ± 4.1	838.8 ± 1.6
298.15 K, 40000 kPa	729.7 ± 1.5	751.9 ± 1.5	778.2 ± 1.5	798 ± 1.5	828.1 ± 4.1	841.3 ± 1.6
298.15 K, 45000 kPa	732.8 ± 1.5	754.9 ± 1.5	781 ± 1.5	800.7 ± 1.6	830.6 ± 4.1	843.8 ± 1.6
298.15 K, 50000 kPa	735.6 ± 1.5	757.7 ± 1.5	783.6 ± 1.6	803.3 ± 1.6	833 ± 4.1	846.2 ± 1.7
298.15 K, 55000 kPa	738.5 ± 1.6	760.5 ± 1.6	786.3 ± 1.6	805.9 ± 1.6	835.4 ± 4.1	848.5 ± 1.7
298.15 K, 60000 kPa	741.2 ± 1.6	763.2 ± 1.6	788.8 ± 1.6	808.3 ± 1.6	837.7 ± 4.1	850.8 ± 1.7
298.15 K, 65000 kPa	743.9 ± 1.6	765.7 ± 1.6	791.3 ± 1.6	810.7 ± 1.6	839.9 ± 4.1	853 ± 1.7
298.15 K, 70000 kPa	746.5 ± 1.6	768.2 ± 1.6	793.7 ± 1.6	813.1 ± 1.6	842.2 ± 4.1	855.2 ± 1.7
298.15 K, 80000 kPa	751.4 ± 1.7	773 ± 1.6	798.4 ± 1.6	817.6 ± 1.7	846.4 ± 4.1	859.4 ± 1.7
298.15 K, 90000 kPa	756.2 ± 1.7	777.7 ± 1.7	802.8 ± 1.7	821.9 ± 1.7	850.6 ± 4.1	863.5 ± 1.8
298.15 K, 100000 kPa	760.6 ± 1.7	782 ± 1.7	807 ± 1.7	826 ± 1.7	854.5 ± 4.1	867.3 ± 1.8
298.15 K, 110000 kPa	764.9 ± 1.8	786.1 ± 1.7	811.2 ± 1.7	830 ± 1.7	858.4 ± 4.1	871.1 ± 1.8
298.15 K, 120000 kPa	768.9 ± 1.8	790.1 ± 1.8	815 ± 1.8	833.8 ± 1.8	861.9 ± 4.1	874.6 ± 1.8
298.15 K, 130000 kPa	772.8 ± 1.9	793.9 ± 1.8	818.7 ± 1.8	837.4 ± 1.8	865.5 ± 4.2	878.1 ± 1.8
298.15 K, 140000 kPa	776.5 ± 1.9	797.6 ± 1.9	822.3 ± 1.8	840.9 ± 1.8	868.9 ± 4.2	881.5 ± 1.9
313.15 K, 100 kPa	686.8 ± 1.4	711 ± 1.4	739.3 ± 1.4	760.9 ± 1.4	793.4 ± 4	808 ± 1.5
313.15 K, 1000 kPa	687.7 ± 1.4	711.8 ± 1.4	740.1 ± 1.4	761.7 ± 1.5	794 ± 4	808.6 ± 1.5
313.15 K, 5000 kPa	691.7 ± 1.4	715.5 ± 1.4	743.5 ± 1.4	764.9 ± 1.5	796.9 ± 4	811.4 ± 1.5
313.15 K, 10000 kPa	696.4 ± 1.4	719.9 ± 1.4	747.6 ± 1.5	768.7 ± 1.5	800.4 ± 4	814.7 ± 1.5
313.15 K, 15000 kPa	700.8 ± 1.4	724.1 ± 1.5	751.5 ± 1.5	772.3 ± 1.5	803.8 ± 4	817.9 ± 1.6
313.15 K, 20000 kPa	704.9 ± 1.5	728 ± 1.5	755.2 ± 1.5	775.8 ± 1.5	807 ± 4	821 ± 1.6
313.15 K, 25000 kPa	708.6 ± 1.5	731.5 ± 1.5	758.4 ± 1.5	778.9 ± 1.5	809.9 ± 4.1	823.8 ± 1.6
313.15 K, 30000 kPa	712.6 ± 1.5	735.3 ± 1.5	762 ± 1.5	782.3 ± 1.5	813 ± 4.1	826.8 ± 1.6
313.15 K, 35000 kPa	716.1 ± 1.5	738.7 ± 1.5	765.2 ± 1.5	785.4 ± 1.5	815.9 ± 4.1	829.5 ± 1.6
313.15 K, 40000 kPa	719.4 ± 1.5	741.9 ± 1.5	768.2 ± 1.5	788.3 ± 1.6	818.5 ± 4.1	832.1 ± 1.6
313.15 K, 45000 kPa	722.7 ± 1.5	745 ± 1.5	771.2 ± 1.5	791.1 ± 1.6	821.2 ± 4.1	834.7 ± 1.6
313.15 K, 50000 kPa	725.8 ± 1.5	748 ± 1.6	774.1 ± 1.6	793.9 ± 1.6	823.8 ± 4.1	837.2 ± 1.7
313.15 K, 55000 kPa	728.8 ± 1.6	750.9 ± 1.6	776.9 ± 1.6	796.6 ± 1.6	826.4 ± 4.1	839.7 ± 1.7
313.15 K, 60000 kPa	731.8 ± 1.6	753.8 ± 1.6	779.6 ± 1.6	799.2 ± 1.6	828.8 ± 4.1	842.1 ± 1.7
313.15 K, 65000 kPa	734.6 ± 1.6	756.5 ± 1.6	782.2 ± 1.6	801.8 ± 1.6	831.2 ± 4.1	844.4 ± 1.7
313.15 K, 70000 kPa	737.3 ± 1.6	759.1 ± 1.6	784.8 ± 1.6	804.2 ± 1.6	833.6 ± 4.1	846.7 ± 1.7
313.15 K, 80000 kPa	742.5 ± 1.7	764.2 ± 1.7	789.6 ± 1.7	808.9 ± 1.7	838 ± 4.1	851.1 ± 1.7
313.15 K, 90000 kPa	747.5 ± 1.7	769 ± 1.7	794.3 ± 1.7	813.5 ± 1.7	842.4 ± 4.1	855.3 ± 1.8
313.15 K, 100000 kPa	752.1 ± 1.7	773.6 ± 1.7	798.7 ± 1.7	817.7 ± 1.7	846.4 ± 4.1	859.3 ± 1.8
313.15 K, 110000 kPa	756.6 ± 1.8	778 ± 1.8	803 ± 1.8	821.9 ± 1.8	850.4 ± 4.1	863.2 ± 1.8
313.15 K, 120000 kPa	760.8 ± 1.8	782.1 ± 1.8	807 ± 1.8	825.8 ± 1.8	854.2 ± 4.2	867 ± 1.8
313.15 K, 130000 kPa	765 ± 1.9	786.2 ± 1.8	810.9 ± 1.8	829.7 ± 1.8	857.9 ± 4.2	870.6 ± 1.9
313.15 K, 140000 kPa	768.9 ± 1.9	790.1 ± 1.9	814.7 ± 1.9	833.4 ± 1.8	861.5 ± 4.2	874.2 ± 1.9
333.15 K, 100 kPa	669.3 ± 1.4	693.9 ± 1.4	722.8 ± 1.4	745 ± 1.4	778 ± 4	793.3 ± 1.5
333.15 K, 1000 kPa	670.5 ± 1.4	694.9 ± 1.4	723.7 ± 1.4	745.8 ± 1.5	778.8 ± 4	794 ± 1.5
333.15 K, 5000 kPa	675.1 ± 1.4	699.1 ± 1.4	727.6 ± 1.4	749.5 ± 1.5	782 ± 4	797.1 ± 1.5
333.15 K, 10000 kPa	680.5 ± 1.4	704.1 ± 1.4	732.1 ± 1.5	753.7 ± 1.5	785.9 ± 4	800.7 ± 1.5
333.15 K, 15000 kPa	685.6 ± 1.4	708.9 ± 1.5	736.5 ± 1.5	757.8 ± 1.5	789.7 ± 4	804.3 ± 1.6
333.15 K, 20000 kPa	690.2 ± 1.5	713.2 ± 1.5	740.5 ± 1.5	761.7 ± 1.5	793.1 ± 4	807.7 ± 1.6
333.15 K, 25000 kPa	694.5 ± 1.5	717.3 ± 1.5	744.4 ± 1.5	765.3 ± 1.5	796.5 ± 4.1	810.8 ± 1.6
333.15 K, 30000 kPa	698.8 ± 1.5	721.2 ± 1.5	748.1 ± 1.5	768.8 ± 1.5	799.7 ± 4.1	813.9 ± 1.6
333.15 K, 35000 kPa	702.7 ± 1.5	725 ± 1.5	751.6 ± 1.5	772.1 ± 1.5	802.8 ± 4.1	816.9 ± 1.6
333.15 K, 40000 kPa	706.4 ± 1.5	728.5 ± 1.5	755 ± 1.5	775.3 ± 1.6	805.8 ± 4.1	819.8 ± 1.6
333.15 K, 45000 kPa	710 ± 1.5	731.9 ± 1.5	758.1 ± 1.6	778.3 ± 1.6	808.7 ± 4.1	822.4 ± 1.7
333.15 K, 50000 kPa	713.5 ± 1.6	735.2 ± 1.6	761.3 ± 1.6	781.4 ± 1.6	811.5 ± 4.1	825.2 ± 1.7
333.15 K, 55000 kPa	716.7 ± 1.6	738.3 ± 1.6	764.3 ± 1.6	784.2 ± 1.6	814.2 ± 4.1	827.8 ± 1.7
333.15 K, 60000 kPa	719.9 ± 1.6	741.3 ± 1.6	767.2 ± 1.6	787 ± 1.6	816.8 ± 4.1	830.3 ± 1.7
333.15 K, 65000 kPa	723 ± 1.6	744.3 ± 1.6	770 ± 1.6	789.8 ± 1.6	819.4 ± 4.1	832.9 ± 1.7
333.15 K, 70000 kPa	726 ± 1.6	747.2 ± 1.6	772.8 ± 1.6	792.4 ± 1.7	821.9 ± 4.1	835.3 ± 1.7
333.15 K, 80000 kPa	731.6 ± 1.7	752.6 ± 1.7	778 ± 1.7	797.4 ± 1.7	826.7 ± 4.1	839.9 ± 1.8
333.15 K, 90000 kPa	737 ± 1.7	757.8 ± 1.7	783 ± 1.7	802.3 ± 1.7	831.3 ± 4.1	844.5 ± 1.8
333.15 K, 100000 kPa	742 ± 1.8	762.6 ± 1.8	787.7 ± 1.7	806.8 ± 1.8	835.6 ± 4.1	848.7 ± 1.8
333.15 K, 110000 kPa	746.8 ± 1.8	767.3 ± 1.8	792.2 ± 1.8	811.2 ± 1.8	839.8 ± 4.2	852.8 ± 1.8
333.15 K, 120000 kPa	751.3 ± 1.9	771.6 ± 1.8	796.4 ± 1.8	815.4 ± 1.8	843.8 ± 4.2	856.8 ± 1.9
333.15 K, 130000 kPa	755.6 ± 1.9	775.8 ± 1.9	800.6 ± 1.9	819.4 ± 1.8	847.7 ± 4.2	860.5 ± 1.9
333.15 K, 140000 kPa	759.8 ± 2	–	–	–	–	–
